# Where two headings read alike, the source gives them in different places.
# Experiments:
# 22RV1 cells = assay: CellTiter-Glo 2.0 cell viability assay, 22RV1; type: cell-based, human; conditions: Homo sapiens; 22RV1, 48 Hours, mean ±S.E.M, N = 2; read-out: pEC50 (cell viability) (converted)
# Experimental: (§1) All cell lines were treated with compounds in duplicate (triplicate for DMSO controls) at a 1× concentration in 0.1% DMSO. The compounds were serially diluted to produce a 7-point, 10-fold titration. The cells were treated with 50:100 μL of compound for a final concentration of 10 μM:10 pM in 0.1% DMSO. At the point of spectrometric analysis, cells were treated with 100 μL of Promega CellTiter-Glo 2.0 Cell Viability Assay reagent. The plates were subjected to an orbital shaker for 2 min to encourage lysis and left for a further 5 min to reach peak luminescence. Luminescence was then recorded on a BMG Labtech PHERAstar luminescence plate reader with recommended settings. Data extracted from this analysis was analyzed with GraphPad Prism (v. 8.2.0, GraphPad) and normalized to the DMSO vehicle control. The EC50 values were derived from these plots.
# MV-4-11 cells = assay: CellTiter-Glo 2.0 cell viability assay, MV-4-11; type: cell-based, human; conditions: Homo sapiens, MV4-11
# Experimental: as §1
# [1] = parameters: method as in earlier work; conditions: mice, cited from earlier work
# HEK293 cells = assay: CellTiter-Glo 2.0 cell viability assay, HEK293; type: cell-based, human; conditions: Homo sapiens; HEK293, 48 Hours, mean ±S.E.M, N = 3; read-out: pEC50 (cell viability) (converted)
# Experimental: as §1
# [2] = tested on: proteome of heterozygous BromoTag-Brd2 HEK293 cells; assay: Multiplexed TMT labeling mass spectrometry proteomics; type: cell-based, human; conditions: 1 μM, 2 h
# Experimental: To do this, we subjected our heterozygous BromoTag-Brd2 HEK293 cell line to a 1 μM treatment of 46, its non-degrading control 52, or vehicle (DMSO) for 2 h prior to harvest. The harvested lysate was then subjected to multiplexed tandem mass tag (TMT) labeling mass spectrometry to enable quantitative and unbiased analysis of protein levels in each condition.
# CRISPR-modified BromoTag-Brd2 HEK293 cells (5 × 10^6) were seeded on a […] 24 h before treatment. The cells were treated with either DMSO, 1 μM AGB1, or 1 μM cis-AGB1. After 2 h of treatment, the cells were washed twice with PBS. The cells were lysed in 150 μL of 100 mM TEAB and 5% (w/v) sodium dodecyl sulfate. The lysate was sonicated for 10 s and then centrifuged at 15,000g for 5 min with the supernatant collected post-centrifugation. The samples were then quantified using a micro-BCA protein assay kit (Thermo Fisher Scientific); 300 μg of each sample was then reduced, alkylated, and then digested using the Strap mini protocol (protifi) as described by the manufacturer (protifi) with some modification. The samples were double-digested with trypsin (1:40) first overnight and then for another 6 h with the same ratio (1:40) in 50 mM TEAB buffer. The peptides were quantified using a quantitative fluorometric peptide assay (Thermo Fisher Scientific). […]
# [3] = tested on: BET proteins: Brd2, Brd3, and Brd4; assay: Single-concentration western blot screen, BET proteins; type: cell-based, human; conditions: 1 μM, 6 h
# Experimental: With this initial library in hand, we set out to evaluate the activity and selectivity of our I-BET-based B&H–PROTACs by treating our heterozygous BromoTag-Brd2 HEK293 cells with 1 μM of compounds 15–17 or 1 μM of control compounds MZP-15 (14), MZ1 (1), and cis-MZ1 for 6 h, which is the sufficient time to achieve effective MZ1-induced BET protein degradation (Figure 4A). The cells were harvested, and the subsequent lysate was analyzed via western blot using antibodies against BET proteins: Brd2, Brd3, and Brd4 (Figure 4A).
# All cells were harvested on ice with RIPA lysis and extraction buffer (Thermo Fisher Scientific, 89901) supplemented with protease inhibitor cocktail (Merck, 11697498001) and Benzonase Nuclease (Sigma, E1014) before being stored at −20 °C prior to use. Total protein quantity was determined using the BCA protein assay (#23225, Pierce, Rockford, Illinois). The protein concentration was determined using the BCA assay (Thermo Fisher Scientific, 23225). The samples were then prepared and loaded onto NuPAGE 4–12% bis–tris Midi gels (Thermo Fisher Scientific, WG1403A), followed by the transfer of proteins onto nitrocellulose membranes (EMD Millipore). […] All western blots were analyzed for band intensities using Image Lab from Bio-Rad (LI-COR, Biosciences). The data extracted from these blots were then plotted and analyzed using Prism (v. 8.2.0, GraphPad).
# [4] = tested on: Brd4^BD2 wild-type domain; parameters: method as in PMID 32756710; conditions: cited from earlier work
smiles,measurement,setting,value
Cc1ncsc1-c1ccc(CNC(=O)[C@@H]2C[C@@H](O)CN2C(=O)[C@@H](NC(=O)COCCOCCOCCNC(=O)C[C@@H]2N=C(c3ccc(Cl)cc3)c3c(sc(C)c3C)-n3c(C)nnc32)C(C)(C)C)cc1 [MZ1 (1)],EC50,22RV1 cells,5010 nM
same,EC50,"MV-4-11 cells; MV-4-11, 24 Hours, mean ±S.E.M, N = 2, read-out: pEC50 (cell viability) (converted)",25.1 nM
same,EC50,"MV-4-11 cells; MV-4-11 cells, read-out: EC50 (cell viability)",~20 nM
same,T1/2,"[1]; IV (5 mg/kg), 5 mg/kg",1.04 h
same,T1/2,[1]; SC (5 mg/kg),2.95 h
"CC[C@@H](C(=O)OCCOCCOCCOCC(=O)N[C@H](C(=O)N1C[C@@H](O)C[C@H]1C(=O)NCc1ccc(-c2scnc2C)cc1)C(C)(C)C)[C@@H]1N=C(c2ccc(Cl)cc2)c2c(sc(C)c2C)-n2c(C)nnc21 [cis-AGB1 (52), (S)-13-((2S,4S)-4-Hydroxy-2-((4-(4-methylthiazol-5-yl)benzyl)carbamoyl)pyrrolidine-1-carbonyl)-14,14-dimethyl-11-oxo-3,6,9-trioxa-12-azapentadecyl (R)-2-((S)-4-(4-chlorophenyl)-2,3,9-trimethyl-6H-thieno[3,2-f][1,2,4]triazolo[4,3-a][1,4]diazepin-6-yl)butanoate]",EC50,HEK293 cells,> 10000 nM
same,proteins significantly degraded among the 6621 proteins quantified,[2],No significant degradation
"COc1ccc2c(c1)C(c1ccc(Cl)cc1)=NC(CC(=O)NCCOCCOCCOCC(=O)N[C@H](C(=O)N1C[C@H](O)C[C@H]1C(=O)NCc1ccc(-c3scnc3C)cc1)C(C)(C)C)c1nnc(C)n1-2 (stereo partly drawn) [compound 14, (2S,4R)-1-((2S)-2-(tert-Butyl)-17-(6-(4-chlorophenyl)-8-methoxy-1-methyl-4H-benzo[f][1,2,4]triazolo[4,3-a][1,4]diazepin-4-yl)-4,16-dioxo-6,9,12-trioxa-3,15-diazaheptadecanoyl)-4-hydroxy-N-(4-(4-methylthiazol-5-yl)benzyl)pyrrolidine-2-carboxamide]",degradation activity across all the three BET family members relative to 1,[3],significant lower activity
CC[C@@H](C(=O)OC)[C@@H]1N=C(c2ccc(Cl)cc2)c2c(sc(C)c2C)-n2c(C)nnc21 [ET-JQ1-OMe],binding to the wild-type domain,[4],undetectable binding
